From patent US10426768B2, “Subcutaneous delivery of polymer conjugates of therapeutic agents” (Serina Therapeutics, Inc., priority 2011, dated 2019)
Like-named read-outs stand apart in the source and are kept apart here.

Experiments:
[1] = Water solubility of the produced polyoxazoline conjugate; format: physicochemical
[2] = Pharmacokinetics of rotigotine in monkey after subcutaneous administration of POZ conjugates; format: in vivo, female macaques (Cynomolgus monkeys); settings: for average terminal plasma half-life (t½) of rotigotine: one subcutaneous dose, 1.5 or 4.5 mg/kg rotigotine equivalents
Procedure: The pharmacokinetics of the POZ conjugates of rotigotine was measured in normal, treatment-naïve female macaques. Animals were randomly assigned into four treatment groups, each N=3. […] The test articles were dissolved in 5% dextrose injection and filtered prior to each injection. Serial venous blood samples were obtained from each animal prior to administration of experimental agents on Day 1 and subsequently at 15 min, 30 min, 1 h, 2 h, 4 h, 6 h, 8 h, 24 h, 48 h, 96 h, 192 h, 240 h and 336 h. The blood was processed to collect the plasma which was stored at −70° C. before analysis. These plasma samples were processed and assayed by chromatographic analysis on LC/MS-MS system as described in Example 31.

[3] = rats; cited from earlier work
[4] = man; cited from earlier work
6-OHDA Rat Model [5] = assay: Rotational test in the 6-OHDA rat model, single subcutaneous dose; format: in vivo, female Sprague-Dawley rats
Procedure: (§1) In order to study the efficacy of the POZ conjugates described herein, in vivo studies were conducted with female Sprague-Dawley rats. Female Sprague-Dawley rats (275-350 g) were used in the study. Each animal underwent stereotaxic surgery and received a unilateral lesion of the right nigrostriatal pathway via injection of 12.5 μg of 6-hydroxydopamine (6-OHDA) into a single site in the medial forebrain bundle. Rats were monitored over two weeks and underwent behavioral assessment (on day −7) via the cylinder test. Animals lacking overt behavioral asymmetry ([…] ipsilateral forelimb use) were excluded from the study. The rats were them randomly assigned to one of six treatment groups (each N=8). […] The rats received a single subcutaneous dose (2 mL/kg) of vehicle (5% dextrose) or test compound dissolved in 5% dextrose.
(§2) Each group of animals (A-F as described above) were independently assessed rat for rotational behavior and forelimb symmetry on day 1, day 2, day 5 and day 9. In the rotational test, the animals were placed in an automated rotometer apparatus (MedAssociates, USA) and the net number of rotations contraversive to the lesion were recorded over a period of 6 hours on each day. In the forelimb symmetry test, the rats are placed in a clear glass cylinder without top (15 cm diameter×45 cm tall). The number of times each paw touches the side of the cylinder during an individual rear is recorded over a 10 minute observation on each day. The first limb in any rear to touch the wall is scored a single point. If both limbs contact within 0.4 s of each other, then this is scored as a ‘both’. All subsequent exploratory movements about the wall using that limb are scored independently until the other limb contacts the wall with weight support. Alternating stepping motions involving both paws one after the other receive a single score for both. The net number of contralateral touches are calculated and considered a favorable response.

6-OHDA Rat Model [6] = assay: Forelimb asymmetry (cylinder) test in the 6-OHDA rat model, single subcutaneous dose; format: in vivo, female Sprague-Dawley rats
Procedure: as §1, §2

[7] = Pharmacokinetics of rotigotine in rat after intravenous and subcutaneous administration of POZ conjugates; format: in vivo, male Sprague-Dawley rats; settings: for PK profile of plasma rotigotine, in words / Cmax values of plasma rotigotine: rat; for PK profile of plasma rotigotine, in words: SC compared with IV; for Cmax values of plasma rotigotine: at 12 hours, dosed SC at 1.6 mg/kg
Procedure: In order to study the pharmacokinetics of the POZ conjugates described herein, in vivo studies were conducted with male Sprague-Dawley rats. Twenty-seven male cannulated Sprague-Dawley rats (300-350 g) were divided into nine groups of 3 animals per group. Groups I-II received a single subcutaneous (SC) dose (right flank) of POZ acetyl rotigotine (as described in Example 6) at equivalent doses of 1.6 and 6.4 mg/kg. […] Group V received a single subcutaneous (SC) dose (right flank) of rotigotine hydrochloride at an equivalent dose of 0.5 mg/kg. Groups VI-VII received a single intravenous (IV) dose (lateral tail vein) of POZ acetyl rotigotine (as described in Example 6) at equivalent doses of 0.5 and 2.0 mg/kg. […] The test articles were dissolved in 5% dextrose injection and filtered prior to each injection. Serial blood samples were obtained from each intravenously dosed animal through the cannulated catheter, at time intervals of end of injection, 12, 24, 48, 96 and 168 hours. The time intervals for the subcutaneously dosed animals were 6, 12, 24, 48, 96 and 168 hours. The blood was processed to collect the plasma which was stored at −70° C. before analysis. The plasma samples were extracted with acetonitrile using d3-rotigotine as an internal standard and the analytes in the extract were assayed by chromatographic analysis on LC/MS-MS system using a C-18 reverse phase column with 0.9 um silica coreshell (Accucore™, Thermo Scientific, 30×2.1 mm ID and 2.6 micron particle size). The mobile phase was ammonium formate 10 mM pH3.0 (solvent A); and 90% acetonitrile, 10% methanol, and 0.1% formic acid (solvent B), eluting at 0.6 mL/min.

[8] = oral; cited from earlier work

Molecule | water solubility, in words [1] | average terminal plasma half-life (t½) of rotigotine [2] | Net number of contraversive turns/6 h period (Average ± SEM; n = 8) (6-OHDA Rat Model [5]; 1.6 mg/kg SC, Day 1) | Net number of contraversive turns/6 h period (Average ± SEM; n = 8) (6-OHDA Rat Model [5]; 1.6 mg/kg SC, Day 5) | Net ipsiversive forelimb use as a percentage of total forelimb use (Average ± SEM; n = 8) (6-OHDA Rat Model [6]; 1.6 mg/kg SC, Day 2) | Net ipsiversive forelimb use as a percentage of total forelimb use (Average ± SEM; n = 8) (6-OHDA Rat Model [6]; 1.6 mg/kg SC, Day 5) | terminal plasma half-life (t½) of rotigotine ([7]; rat plasma, IV or SC dosing) | PK profile of plasma rotigotine, in words [7] | Cmax values of plasma rotigotine [7] | further results
H-[(α-Methyl-Acetyl-Rotigotine)10(EOZ)190]—COOH 20K [POZ alpha methyl acetyl rotigotine] | good water solubility | 9 h |  |  |  |  |  |  |  | 
CCCN(CCc1cccs1)[C@H]1CCc2c(O)cccc2C1 [Rotigotine, S(−)-2-(N-propyl-N-2-thienylethylamino)-5-hydroxytetralin, reference compound] |  |  |  |  |  |  |  |  |  | oral and intraperitoneal bioavailability [3]: less than 10%; half-life [4]: 2.5 h; Net number of contraversive turns/6 h period (Average ± SEM; n = 8) (6-OHDA Rat Model [5]; 0.5 mg/kg SC, Day 1): 983 ± 405 turns/6 h period; Net number of contraversive turns/6 h period (Average ± SEM; n = 8) (6-OHDA Rat Model [5]; 0.5 mg/kg SC, Day 5): −49 ± 9 turns/6 h period; Net number of contraversive turns/6 h period (Average ± SEM; n = 8) (6-OHDA Rat Model [5]; 3.0 mg/kg SC, Day 1): 1570 ± 312 turns/6 h period; Net number of contraversive turns/6 h period (Average ± SEM; n = 8) (6-OHDA Rat Model [5]; 3.0 mg/kg SC, Day 5): −39 ± 15 turns/6 h period; Net ipsiversive forelimb use as a percentage of total forelimb use (Average ± SEM; n = 8) (6-OHDA Rat Model [6]; 0.5 mg/kg SC, Day 2): 60 ± 13%; Net ipsiversive forelimb use as a percentage of total forelimb use (Average ± SEM; n = 8) (6-OHDA Rat Model [6]; 0.5 mg/kg SC, Day 5): 94 ± 6%; Net ipsiversive forelimb use as a percentage of total forelimb use (Average ± SEM; n = 8) (6-OHDA Rat Model [6]; 3.0 mg/kg SC, Day 2): 9 ± 13%; Net ipsiversive forelimb use as a percentage of total forelimb use (Average ± SEM; n = 8) (6-OHDA Rat Model [6]; 3.0 mg/kg SC, Day 5): 85 ± 8%; half-life ([7]; male, Sprague-Dawley, subcutaneous, 0.5 mg/kg, rat plasma, IV or SC dosing, read-out: terminal plasma half-life (t½) of rotigotine (converted)): 2.8 h
H-[(Acetyl-Rotigotine)10(EOZ)190]—COOH 20K [POZ acetyl rotigotine] | good water solubility |  | 872 ± 232 turns/6 h period | −14 ± 14 turns/6 h period | 50 ± 13% | 85 ± 10% | 16 h | essentially the same PK profile when delivered either SC or IV | 48 ng/mL | 
N[C@@H](Cc1ccc(O)c(O)c1)C(=O)O [levodopa] |  |  |  |  |  |  |  |  |  | bioavailability [8]: less than 10%
H-[(Propionyl-Rotigotine)10(EOZ)190]—COOH 20K [POZ propyl rotigotine] | good water solubility | 60 h | 1408 ± 286 turns/6 h period | 68 ± 60 turns/6 h period | 0 ± 14% | 31 ± 13% | 60 h | markedly prolonged PK profile that is near “zero order” kinetics | 6 ng/mL | PK profile of plasma rotigotine, in words ([2]; subcutaneous): markedly prolonged PK profile that is near “zero order” kinetics; Net number of contraversive turns/6 h period (Average ± SEM; n = 8) (6-OHDA Rat Model [5]; 6.4 mg/kg SC, Day 1): 1272 ± 405 turns/6 h period; Net number of contraversive turns/6 h period (Average ± SEM; n = 8) (6-OHDA Rat Model [5]; 6.4 mg/kg SC, Day 5): 5142 ± 777 turns/6 h period; rotational activity, in words (6-OHDA Rat Model [5]; day 5, high dose of 6.4 mg/kg): marked and continuous contraversive rotations; Net ipsiversive forelimb use as a percentage of total forelimb use (Average ± SEM; n = 8) (6-OHDA Rat Model [6]; 6.4 mg/kg SC, Day 2): −2 ± 26%; Net ipsiversive forelimb use as a percentage of total forelimb use (Average ± SEM; n = 8) (6-OHDA Rat Model [6]; 6.4 mg/kg SC, Day 5): −6 ± 16%; forelimb use activity, in words (6-OHDA Rat Model [6]; day 5, both doses of 1.6 and 6.4 mg/kg): marked and continuous ipsiversive forelimb use
